Results from patent publication US4087461A, “Anti-androgenic steroids” (The Johns Hopkins University, priority 1977, dated 1978).
“Also recorded” adds a separate entry of the source.

Legend:
[1] = target: T1, Δ^5 -3-ketosteroid isomerase (EC 5.3.3.1) (Comamonas testosteroni, UniProt P00947); test: irreversible inactivation of crystalline purified bacterial Δ^5-3-ketosteroid isomerase by acetylenic steroids (Kitz and Wilson kinetic analysis); assay type: biochemical, Pseudomonas testosteroni
Method: The inactivation is progressive with time, and half-lives in the range of 150-1320 sec are observed at concentrations of 20-200 μM of the two inhibitors. The enzymatic activities of control vessels which received only equivalent volumes of 1,4-dioxane remained constant at initial activities.
The initial rates of inactivation of the isomerase by (1) and (2) can be analyzed by the method of Kitz and Wilson^8 since very satisfactory pseudo-first-order behavior was observed. It is assumed that [I] (inhibitor) >> [E] (enzyme), that [E.I] (the reversible enzyme-inhibitorcomplex) is at all times in equilibrium with enzyme and inhibitor, and that ^k cat >> ^k inh. The scheme for the formation of EI' (the irreversible enzyme-inhibitor derivative) may then be represented as follows.
If the enzyme-inhibitor solution is diluted extensively prior to assay, the active enzyme (ε) = [E] + [E.I]. Then -d(ε)/dt = k3 [E.I.], and K1 = ([E][I])/[EI]. Thus [formula] where Et = total amount of enzyme in system.
If one defines [formula] Consequently double reciprocal plots of kapp with respect to [I] should be linear, with slopes and intercepts permitting the determination of K1 and k3 where the latter is the overall rate constant for the irreversible inhibition process.
From plots of 1n ε (residual enzymatic activity) vs. time, kapp has been determined at five inhibitor concentrations for both compounds 1 and 2, i.e. estryne and pregnyne. Strict linearity of the semilogarithmic plots has been observed in all cases, over greater than two half-lives. A plot of 1/kapp vs. 1/[I] was linear and gave k3 and K1 (FIG. 1). For compound 1, K1 = 56 μM and k3 = 1.98 × 10^-3 sec^-1, and for compound 2, K1 = 32 μM and k3 = 4.10 × 10^-3 sec^-1.
Studies were performed using crystalline purified bacterial Δ^5 -3-ketosteroid isomerase (from P. testosteroni), under pseudo first order conditions using the kinetic analysis of R. Kitz and I. B. Wilson [J. Biol. Chem., 237, 3245 (1964)].

[2] = target: T1, Δ^5 -3-ketosteroid isomerase (EC 5.3.3.1); test: as above; assay type: biochemical, Pseudomonas testosteroni; conditions: 24 hr at 4° vs. 1 mM potassium phosphate buffer, pH 7.0
[3] = system: endogenous androgen biosynthesis; test: study in intact male rats: weights of sex accessory tissue and other organs; assay type: in vivo, male Sprague-Dawley rats; conditions: 7 days; for Adrenal weight (± Sem): intact control 27 ± 2; for Dorsal Lateral Prostate weight (± Sem): intact control 244 ± 12; for Seminal Vesicles weight (± Sem): intact control 394 ± 12; for Ventral Prostate weight (± Sem): intact control 421 ± 15; for Kidney weight (± Sem): intact control 1260 ± 63; for Testis weight (± Sem): intact control 1650 ± 38
Method: Studies with intact male Sprague-Dawley rats (300g body weight) are illustrated for compounds (1) and (2).
Similarly, compound (2), […] rats at a dosage of 20mg per kilo for 7 days produced 20% reduction in weight of the ventral prostate and 28% reduction of the dorsal lateral prostate.
The following data illustrates the inhibiting effect of estryne and pregnyne on Δ^5 -3-ketosteroid isomerase (EC 5.3.3.1) as evidenced by a depression of the wet weight of the sex accessory tissue in the mature male rat treated with the estryne and pregnyne.
A. Male rats were used to assess the effect of estryne on endogenous androgen biosynthesis at varying doses (1-20 mg/kg body weight). […] On the eighth day the animals were sacrificed and the ventral prostate, dorsal lateral prostate, seminal vesicles, testes, kidneys, and adrenals were removed and weighed. Samples of each tissue were preserved in 10% buffered formalin for histological examination.
B. Male rats were treated with 19-norpregnyne by a regimen exactly as described for the estryne.

[4] = target: T2, cytosol androgen receptor (prostate androgen binding protein) (Rattus norvegicus, UniProt P15207); test: inhibition of nuclear uptake of ^3H-dihydrotestosterone in ventral prostate minces (binding to the prostatic androgen receptor)
T2 construct: freshly minced ventral prostate tissue obtained from rats castrated 24 hours before sacrifice; from tissue; host or cells: ventral prostate minces of castrated rats
T2 sequence (P15207 1-902): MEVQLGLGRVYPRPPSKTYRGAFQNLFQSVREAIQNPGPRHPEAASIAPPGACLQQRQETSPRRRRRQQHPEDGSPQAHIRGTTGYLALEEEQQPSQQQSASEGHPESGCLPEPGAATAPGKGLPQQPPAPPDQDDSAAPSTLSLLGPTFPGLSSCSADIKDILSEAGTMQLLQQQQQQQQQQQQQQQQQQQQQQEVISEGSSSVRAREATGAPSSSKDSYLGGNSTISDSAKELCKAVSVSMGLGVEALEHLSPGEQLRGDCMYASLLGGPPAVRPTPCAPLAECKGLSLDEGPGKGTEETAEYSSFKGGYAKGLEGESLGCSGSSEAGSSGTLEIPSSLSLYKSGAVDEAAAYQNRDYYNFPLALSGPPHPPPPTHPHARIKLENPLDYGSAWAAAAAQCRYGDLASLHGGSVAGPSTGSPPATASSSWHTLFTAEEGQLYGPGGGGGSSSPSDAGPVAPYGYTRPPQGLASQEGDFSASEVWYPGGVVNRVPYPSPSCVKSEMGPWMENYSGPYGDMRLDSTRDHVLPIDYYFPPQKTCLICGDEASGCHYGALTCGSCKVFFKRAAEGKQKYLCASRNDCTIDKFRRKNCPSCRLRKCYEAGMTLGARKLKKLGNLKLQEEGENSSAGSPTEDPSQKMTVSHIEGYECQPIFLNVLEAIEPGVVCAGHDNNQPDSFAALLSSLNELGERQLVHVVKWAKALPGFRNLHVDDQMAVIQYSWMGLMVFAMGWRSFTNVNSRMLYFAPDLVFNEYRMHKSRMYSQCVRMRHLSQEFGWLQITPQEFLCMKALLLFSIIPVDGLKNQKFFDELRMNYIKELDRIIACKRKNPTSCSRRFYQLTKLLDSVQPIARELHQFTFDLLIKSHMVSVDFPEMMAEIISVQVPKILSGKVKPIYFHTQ
Method: The binding to the cytosol androgen receptor was determined by the procedure of Fang (5) with modification. […] The amount of radioactivity in the nuclei is expressed as observed counts per minute per 100 μg DNA.

[5] = 20mg per kilo per day, i.p. in propylene glycol

T1 sequence (P00947 whole entry, stated change not applied): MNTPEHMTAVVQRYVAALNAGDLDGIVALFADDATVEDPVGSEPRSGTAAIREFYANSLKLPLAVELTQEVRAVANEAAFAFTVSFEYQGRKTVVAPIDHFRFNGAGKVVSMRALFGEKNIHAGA

## C[C@]12CC[C@@H]3C(=O)CCC(=O)CC#CC[C@H]3[C@@H]1CCC2=O [Compound 1, 5,10-secoestr-5-yne-3,10,17-trione]
[1]; in words
  irreversible inhibition / inactivation of the enzyme: rapid irreversible inhibition; also recorded: rapid irreversible and complete inactivation of the enzyme; also recorded: Powerful irreversible inhibition
[1]; pH 7.0, 20-200 μM of the two inhibitors, in 1,4-dioxane
  half-life of enzyme inactivation: 2.5 to 22 min
[1]; pH 7, pseudo first order conditions, five inhibitor concentrations (10-fold range), read-out: k3, overall rate constant for the irreversible inhibition process
  kinact: 0.00198 s⁻¹
[1]; pseudo first order conditions, five inhibitor concentrations (10-fold range), read-out: K1 (KI), inhibitor dissociation constant
  Ki: 56 µM
[2]
  restoration of enzymatic activity by prolonged dialysis: inability to restore enzymatic activity
[3]; [5]
  reduction in weight of the dorsal lateral prostate: 25-30%
  reduction in weight of the ventral prostate: 28%
[3]; 20mg per kilo per day, i.p. in propylene glycol, listed as estryne
  reduction in weight of the ventral prostate: 25-30%
[3]; 1-20 mg/kg, in words
  dose dependence of the effect on prostatic weight: dose dependent
[3]; in words
  effect on weight of the adrenal: no effect
  effect on weight of the kidney: no effect
  effect on weight of the seminal vesicles: Only a modest decrease
  effect on weight of the testes: no effect
  effect on wet weight of the dorsal-lateral prostate: depresses the wet weight
  effect on wet weight of the ventral prostate: depresses the wet weight
[3]; estryne 1 mg/kg daily i.p.
  Adrenal weight (± Sem): 28 ± 2 mg
  Dorsal Lateral Prostate weight (± Sem): 212 ± 19 mg
  Seminal Vesicles weight (± Sem): 380 ± 18 mg
  Ventral Prostate weight (± Sem): 435 ± 23 mg
  Kidney weight (± Sem): 1320 ± 68 mg
  Testis weight (± Sem): 1650 ± 60 mg
[3]; estryne 5 mg/kg daily i.p.
  Adrenal weight (± Sem): 26 ± 2 mg
  Dorsal Lateral Prostate weight (± Sem): 195 ± 8 mg
  Seminal Vesicles weight (± Sem): 368 ± 16 mg
  Ventral Prostate weight (± Sem): 385 ± 8 mg
  Kidney weight (± Sem): 1090 ± 39 mg
  Testis weight (± Sem): 1590 ± 54 mg
[3]; estryne 10 mg/kg daily i.p.
  Adrenal weight (± Sem): 30 ± 2 mg
  Dorsal Lateral Prostate weight (± Sem): 188 ± 6 mg
  Seminal Vesicles weight (± Sem): 387 ± 14 mg
  Ventral Prostate weight (± Sem): 364 ± 25 mg
  Kidney weight (± Sem): 1150 ± 42 mg
  Testis weight (± Sem): 1580 ± 59 mg
[3]; estryne 20 mg/kg daily i.p.
  Adrenal weight (± Sem): 30 ± 3 mg
  Dorsal Lateral Prostate weight (± Sem): 177 ± 15 mg
  Seminal Vesicles weight (± Sem): 309 ± 23 mg
  Ventral Prostate weight (± Sem): 302 ± 28 mg
  Kidney weight (± Sem): 1040 ± 35 mg
  Testis weight (± Sem): 1420 ± 64 mg
[4]; 2 × 10^-6 M with ^3H-DHT 2 × 10^-9 M
  inhibition of nuclear uptake of ^3H-dihydrotestosterone: approximately 50%
[4]; rat, 1 h, pH 7.4, steroid 2 × 10^-6 M with ^3H-DHT 2 × 10^-9 M, read-out: nuclear uptake of ^3H-DHT, % Control
  remaining activity at 2 µM: 56%
[4]; steroid 2 × 10^-6 M with ^3H-DHT 2 × 10^-9 M, control 8,471
  CPM/100 DNA (nuclear uptake of ^3H-DHT): 4,771 CPM/100 DNA
